From patent publication US8202856B2 (Merck Serono SA, priority 2007, dated 2012) come the findings set out here.

Structures can show the parent of a compound that is named as a salt.

Chain of S1P1 receptor (P21453 whole entry): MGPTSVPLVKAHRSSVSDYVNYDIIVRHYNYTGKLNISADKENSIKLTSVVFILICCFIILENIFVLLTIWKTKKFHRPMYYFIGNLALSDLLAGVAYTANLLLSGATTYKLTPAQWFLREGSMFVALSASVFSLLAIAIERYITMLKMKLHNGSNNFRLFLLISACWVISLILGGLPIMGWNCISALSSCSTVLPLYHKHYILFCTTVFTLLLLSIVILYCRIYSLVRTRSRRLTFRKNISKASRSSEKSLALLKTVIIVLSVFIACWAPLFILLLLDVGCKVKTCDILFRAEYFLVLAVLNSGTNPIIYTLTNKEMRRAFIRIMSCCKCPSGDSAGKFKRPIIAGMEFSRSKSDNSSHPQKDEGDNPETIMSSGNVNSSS

This assay concerns the target S1P1 receptor (Homo sapiens, UniProt P21453). The assay is described as follows: 35S-GTPγS binding, membranes from CHO cells expressing S1P1. The class given is biochemical. As to conditions: CHO cell membranes expressing S1P1. How it is done: Receptor binding assay: Membranes were prepared from CHO cells expressing S1P1 or S1P3 for use in ligand and 35S-GTPTS binding studies. Cells were suspended in 50 mM TRIS, pH 7.4, 2 mM EDTA, 250 mM Sucrose (buffer A) and 1× Complete protease inhibitor cocktail (Roche), and disrupted at 4° C. by nitrogen decompression using a cell disruption bomb (Parr Instrument). Following centrifugation at 1000 RPM for 10 min at 4° C., the supernatant was suspended in buffer A and centrifuged again at 19000 RPM for 60 min at 4° C. The pellet was then suspended in 10 mM HEPES, pH 7.4, 1 mM EDTA, 250 mM Sucrose (Buffer B), and 1× Complete EDTA-free protease inhibitor cocktail and homogenized using a potter. Membranes were flash frozen in liquid nitrogen and stored at −80° C. [33P]sphingosine 1-phosphate (3000 Ci/mmol; American Radiolabeled Chemicals, Inc.) was added to test compounds in DMSO. Membranes and WGA SPA beads (GE Healthcare) were added to give a final volume of 100 μl in 96-well plates with assay concentrations of […] [33P]sphingosine 1-phosphate (respectively for S1P1 or S1P3), 50 mM HEPES, pH 7.5, 5 mM MgCl2, 100 mM NaCl, 0.4% fatty acid-free BSA, 1-5 μg/well of proteins and 100 μg/well of WGA SPA beads. Binding was performed for 60 min at room temperature on a shaker and bound radioactivity was measured on a PerkinElmer 1450 MicroBeta counter. Specific binding was calculated by subtracting remaining radioactivity in the presence of 1000-fold excess of unlabeled S1P. Binding data were analyzed using the GraphPad Prism program.
Measurements of ^35S-GTPγS Binding: Membranes (1 to 10 μg protein) prepared as described above, were incubated in 96-well Scintiplates (PerkinElmer) with test compounds diluted in DMSO, in 180 μl of 20 mM HEPES, pH 7.4, 10 mM MgCl2, 2 μg/well Saponin, 0.2% fatty acid free BSA (Assay buffer), 140 mM NaCl and 1.7 μM GDP. The assay was initiated with the addition of 20 μl of 1.5 nM [35S]-GTPγS (1100 Ci/mmol; GE Healthcare) in assay buffer. After 60 min incubation at 30° C. on a shaker, plates were centrifuged for 10 min at 2000 RPM. Supernatant was discarded and membrane bound radioactivity was measured on a PerkinElmer 1450 MicroBeta counter. Triplicate samples were averaged and expressed as response relative to S1P activation in absence of compound (n=2).
By EC50 is commonly meant the concentration needed to bring the measured effect to its halfway point. A higher EC50 goes with weaker potency. As to `Fc1ccccc1-n1nnc(-c2nc(-c3cccc(CN4CCOCC4)c3)no2)c1-c1ccncc1` [Example 60, 4-(3-{5-[1-(2-fluorophenyl)-5-pyridin-4-yl-1H-1,2,3-triazol-4-yl]-1,2,4-oxadiazol-3-yl}benzyl)morpholine], a half-maximal response (EC50) required 620 nM.
As for `OCCNCc1ccc(-c2noc(-c3nnn(-c4ccccc4F)c3-c3ccncc3)n2)cc1` [Example 136, 2-[(4-{5-[1-(2-fluorophenyl)-5-pyridin-4-yl-1H-1,2,3-triazol-4-yl]-1,2,4-oxadiazol-3-yl}benzyl)amino]ethanol], the figure is 31 nM; as for `Nc1ccc(-c2noc(-c3nnn(-c4ccccc4F)c3-c3ccncc3)n2)cn1` [Example 118, 5-{5-[1-(2-fluorophenyl)-5-pyridin-4-yl-1H-1,2,3-triazol-4-yl]-1,2,4-oxadiazol-3-yl}pyridin-2-amine], 131 nM; as for `CN(C)Cc1cccc(-c2noc(-c3nnn(-c4ccccc4F)c3-c3ccncc3)n2)c1` [Example 94, 1-(3-{5-[1-(2-fluorophenyl)-5-pyridin-4-yl-1H-1,2,3-triazol-4-yl]-1,2,4-oxadiazol-3-yl}phenyl)-N,N-dimethylmethanamine], 226 nM.
`Fc1ccccc1-n1nnc(-c2nc(-c3ccc(C(F)(F)F)nc3)no2)c1-c1ccncc1` [Example 120, 5-{5-[1-(2-fluorophenyl)-5-pyridin-4-yl-1H-1,2,3-triazol-4-yl]-1,2,4-oxadiazol-3-yl}-2-(trifluoromethyl)pyridine]: the EC50 came out at 754 nM.
Under `Fc1ccccc1-c1noc(-c2nnn(-c3ccccc3F)c2Cc2ccccc2)n1` [Example 58, 5-[5-benzyl-1-(2-fluorophenyl)-1H-1,2,3-triazol-4-yl]-3-(2-fluorophenyl)-1,2,4-oxadiazole] stands 1160 nM; under `CC(C)NCc1ccc(-c2noc(-c3nnn(-c4ccccc4F)c3-c3ccncc3)n2)cc1` [Example 165, N-(4-{5-[1-(2-fluorophenyl)-5-pyridin-4-yl-1H-1,2,3-triazol-4-yl]-1,2,4-oxadiazol-3-yl}benzyl)propan-2-amine], 17 nM.
`COCCN(C)Cc1ccc(-c2noc(-c3nnn(-c4ccccc4F)c3-c3ccncc3)n2)cc1` [Example 166, N-(4-(5-(1-(2-fluorophenyl)-5-(pyridin-4-yl)-1H-1,2,3-triazol-4-yl)-1,2,4-oxadiazol-3-yl)benzyl)-2-methoxy-N-methylethanamine] came in with a half-maximal effective concentration (EC50) of 218 nM.
In turn, `O=C(O)c1ccc(-c2noc(-c3nnn(-c4ccccc4F)c3-c3ccccc3)n2)cc1F` [Example 23, 2-Fluoro-4-{5-[1-(2-fluorophenyl)-5-phenyl-1H-1,2,3-triazole-4-yl]-1,2,4-oxadiazole-3-yl}benzoic acid] came in with a concentration for a half-maximal effect (EC50) of 646 nM.
For the molecule `Fc1ccccc1-n1nnc(-c2nc(-c3ccncc3)no2)c1-c1ccccn1` [Example 66, 2-[1-(2-fluorophenyl)-4-(3-pyridin-4-yl-1,2,4-oxadiazol-5-yl)-1H-1,2,3-triazol-5-yl]pyridine], the half-maximal effective concentration (EC50) is 26 nM.
Under `OCC1CCCN(Cc2ccc(-c3noc(-c4nnn(-c5ccccc5F)c4-c4ccncc4)n3)cc2)C1` (stereo not shown) [Example 140, [1-(4-{5-[1-(2-fluorophenyl)-5-pyridin-4-yl-1H-1,2,3-triazol-4-yl]-1,2,4-oxadiazol-3-yl}benzyl)piperidin-3-yl]methanol] stands 530 nM; under `CCN1CCc2ccc(-c3noc(-c4nnn(-c5ccccc5F)c4-c4ccncc4)n3)cc2C1` [Example 154, 2-ethyl-7-{5-[1-(2-fluorophenyl)-5-pyridin-4-yl-1H-1,2,3-triazol-4-yl]-1,2,4-oxadiazol-3-yl}-1,2,3,4-tetrahydroisoquinoline], 918 nM.
Under `Fc1ccc(-c2noc(-c3nnn(-c4ccccc4F)c3-c3ccncc3)n2)cc1` [Example 96, 4-{1-(2-fluorophenyl)-4-[3-(4-fluorophenyl)-1,2,4-oxadiazol-5-yl]-1H-1,2,3-triazol-5-yl}pyridine] stands 138 nM; under `COCc1c(-c2nc(-c3ccc(Cn4cccn4)cc3)no2)nnn1-c1ccccc1F` [Example 173, 5-[1-(2-fluorophenyl)-5-(methoxymethyl)-1H-1,2,3-triazol-4-yl]-3-[4-(1H-pyrazol-1-ylmethyl)phenyl]-1,2,4-oxadiazole], 240 nM; under `CNCc1cccc(-c2noc(-c3nnn(-c4ccccc4F)c3-c3ccncc3)n2)c1` [Example 133, 1-(3-{5-[1-(2-fluorophenyl)-5-pyridin-4-yl-1H-1,2,3-triazol-4-yl]-1,2,4-oxadiazol-3-yl}phenyl)-N-methylmethanamine formate], 646 nM.
In the case of `Cc1c(-c2nc(-c3cc(F)ccc3F)no2)nnn1-c1ccccc1Br` [Example 3, 5-[1-(2-Bromophenyl)-5-methyl-1H-1,2,3-triazole-4-yl]-3-(2,5-difluorophenyl)-1,2,4-oxadiazole], the EC50 was 2720 nM.
As for `Fc1ccccc1-n1nnc(-c2nc(-c3ccccc3)no2)c1-c1ccncc1` [Example 95, 4-[1-(2-fluorophenyl)-4-(3-phenyl-1,2,4-oxadiazol-5-yl)-1H-1,2,3-triazol-5-yl]pyridine], the figure is 13 nM.
Under `Fc1ccccc1-n1nnc(-c2nc(-c3ccccn3)no2)c1-c1ccncc1` [Example 45, 2-{5-[1-(2-fluorophenyl)-5-pyridin-4-yl-1H-1,2,3-triazol-4-yl]-1,2,4-oxadiazol-3-yl}pyridine] stands 2170 nM.
As for `O=C(O)C1CCCN(Cc2ccc(-c3noc(-c4nnn(-c5ccccc5F)c4-c4ccncc4)n3)cc2)C1` (stereo not shown) [Example 158, 1-(4-{5-[1-(2-fluorophenyl)-5-pyridin-4-yl-1H-1,2,3-triazol-4-yl]-1,2,4-oxadiazol-3-yl}benzyl)piperidine-3-carboxylic acid], the figure is 56 nM; as for `Fc1ccccc1-n1nnc(-c2nc(-c3ccco3)no2)c1-c1ccncc1` [Example 89, 4-{1-(2-fluorophenyl)-4-[3-(2-furyl)-1,2,4-oxadiazol-5-yl]-1H-1,2,3-triazol-5-yl}pyridine], 1030 nM; as for `NCc1cccc(-c2noc(-c3nnn(-c4ccccc4F)c3-c3ccncc3)n2)c1` [Example 125, 1-(3-{5-[1-(2-fluorophenyl)-5-pyridin-4-yl-1H-1,2,3-triazol-4-yl]-1,2,4-oxadiazol-3-yl}phenyl)methanamine hydrochloride], 230 nM.
Consider `NC(=O)c1ccc(-c2noc(-c3nnn(-c4ccccc4F)c3-c3ccncc3)n2)cc1` [Example 73, 4-{5-[1-(2-fluorophenyl)-5-pyridin-4-yl-1H-1,2,3-triazol-4-yl]-1,2,4-oxadiazol-3-yl}benzamide], for which the EC50 came to 49 nM.
`OCC1CCN(Cc2ccc(-c3noc(-c4nnn(-c5ccccc5F)c4-c4ccncc4)n3)cc2)CC1` [Example 139, [1-(4-{5-[1(2-fluorophenyl)-5-pyridin-4-yl-1H-1,2,3-triazol-4-yl]-1,2,4-oxadiazol-3-yl}benzyl)piperidin-4-yl]methanol] registered an EC50 of 118 nM.
As for `CS(=O)(=O)NC1CCN(Cc2ccc(-c3noc(-c4nnn(-c5ccccc5F)c4-c4ccncc4)n3)cc2)CC1` [Example 146, N-[1-(4-{5-[1-(2-fluorophenyl)-5-pyridin-4-yl-1H-1,2,3-triazol-4-yl]-1,2,4-oxadiazol-3-yl}benzyl)piperidin-4-yl]methanesulfonamide], the figure is 360 nM.
Under `Fc1ccccc1-n1nnc(-c2nc(-c3cccnc3)no2)c1C1CCCO1` (stereo not shown) [Example 54] stands 953 nM; under `Fc1ccccc1-n1nnc(-c2nc(-c3ccc4[nH]ccc4c3)no2)c1-c1ccncc1` [Example 43, 5-{5-[1-(2-fluorophenyl)-5-pyridin-4-yl-1H-1,2,3-triazol-4-yl]-1,2,4-oxadiazol-3-yl}-1H-indole], 19 nM.
Under `COCc1c(-c2nc(-c3ccc(Cn4ccnc4)cc3)no2)nnn1-c1ccccc1F` [Example 175, 5-[1-(2-fluorophenyl)-5-(methoxymethyl)-1H-1,2,3-triazol-4-yl]-3-[4-(1H-imidazol-1-ylmethyl)phenyl]-1,2,4-oxadiazole] stands 67 nM; under `COCc1c(-c2nc(-c3ccccc3OC)no2)nnn1-c1ccccc1F` [Example 50, 5-[1-(2-fluorophenyl)-5-(methoxymethyl)-1H-1,2,3-triazol-4-yl]-3-(2-methoxyphenyl)-1,2,4-oxadiazole], 443 nM.
